The source made the active and inactive calls. The rule behind the calls is not given here.
Columns and labels:
[1] = tested on: U-937; test: Antiproliferative activity against human U937 cells after 24 hrs by MTT assay; assay type: functional; conditions: U-937, 24 h
[2] = tested on: A375P; test: Antiproliferative activity against human A375P cells after 24 hrs by MTT assay; assay type: functional, cell-based
[3] = Cytotoxicity against human HS27 cells after 24 hrs by MTT assay; assay type: cell-based
[4] = target: Serine/threonine-protein kinase mTOR (Homo sapiens, UniProt P42345); test: Inhibition of mTOR (unknown origin) after 40 mins by scintillation counting analysis

Row | SMILES | GI50 [1] | Activity [2] | GI50 at 24 h [3] | IC50 [4]
1 | Cc1ccc(NC(=O)Nc2ccc(Cl)c(Cl)c2)cc1NC(=O)c1cnoc1C | 1.89 µM | inactive | > 30 µM | 
2 | Cc1cc(C)cc(C(=O)Nc2ccc(C)c(NC(=O)c3cnoc3C)c2)c1 | 3.1 µM | inactive | > 30 µM | 
3 | Cc1cc(NC(=O)Nc2cc(Cl)cc(Cl)c2)ccc1NC(=O)c1cnoc1C | > 30 µM | inactive | > 30 µM | 
4 | Cc1cc(NC(=O)Nc2ccccc2F)ccc1NC(=O)c1cnoc1C | > 30 µM | inactive | > 30 µM | 
5 | Cc1cn(-c2cc(C(=O)Nc3ccc(C)c(NC(=O)c4cnoc4C)c3)cc(C(F)(F)F)c2)cn1 | 0.049 µM | inactive | > 30 µM | 
6 | Cc1ccc(NC(=O)Nc2ccc(Cl)cc2)cc1NC(=O)c1cnoc1C | > 30 µM | inactive | > 30 µM | 
7 | Cc1ccc(NC(=O)Nc2cccc(C(F)(F)F)c2)cc1NC(=O)c1cnoc1C | > 30 µM | inactive | > 30 µM | 
8 | Cc1ccc(NC(=O)Nc2ccccc2F)cc1NC(=O)c1cnoc1C | > 30 µM | inactive | > 30 µM | 
9 | CCCS(=O)(=O)Nc1ccc(NC(=O)c2cnoc2C)c(C)c1 | > 30 µM | inactive | > 30 µM | 
10 | Cc1cc(NC(=O)Nc2cccc(C(F)(F)F)c2)ccc1NC(=O)c1cnoc1C | > 30 µM | inactive | > 30 µM | 
11 | Cc1cc(NC(=O)Nc2cccc(Cl)c2)ccc1NC(=O)c1cnoc1C | > 30 µM | inactive | > 30 µM | 
12 | Cc1cc(NC(=O)Nc2ccc(Cl)c(C(F)(F)F)c2)ccc1NC(=O)c1cnoc1C | 16.5 µM | inactive | > 30 µM | 
13 | Cc1ccc(NC(=O)Nc2cc(Cl)cc(Cl)c2)cc1NC(=O)c1cnoc1C | > 30 µM | inactive | > 30 µM | 
14 | Cc1ccc(NC(=O)c2ccc(-c3ccccc3)cc2)cc1NC(=O)c1cnoc1C | > 30 µM | inactive | > 30 µM | 
15 | O=c1cc(N2CCOCC2)oc2c(-c3ccccc3)cccc12 [LY-294002] |  |  |  | 9.9 µM
16 | Cc1ccc(NC(=O)c2cnn(-c3ccccc3)c2C(F)(F)F)cc1NC(=O)c1cnoc1C | 0.139 µM | inactive | > 30 µM | 
17 | Cc1ccc(NC(=O)Nc2cccc(Cl)c2)cc1NC(=O)c1cnoc1C | > 30 µM | inactive | > 30 µM | 

From ChEMBL document CHEMBL3616395, “Discovery of 4-arylamido 3-methyl isoxazole derivatives as novel FMS kinase inhibitors” (Eur J Med Chem, 2015)
